Read-outs that look alike come from different tables or passages of the source.
How the values were obtained:
[1] = system: synthesis of intracellular triacylglycerols; experiment: Inhibitory activity on the synthesis of intracellular triacylglycerols, [14C] oleic acid incorporation in CHO-K1 cells; format: cell-based, Chinese hamster; details: [1-14C] oleic acid, 6 hours incubation, read-out: IC50, inhibition of formation of [14C] triacylglycerols
Protocol: The inhibitory activity on the synthesis of intracellular triacylglycerols of substance FKI-3864 according to the invention was tested in the manner described below.
Chinese hamster ovary cells (CHO-K1 cells) adjusted to 5.0×10^5 cells/mL with HAMs F12 medium (10% FBS, containing Penicillin/Streptomycin) were distributed on a 48-well plate in aliquots of 250 μL.
Then, after the cells were incubated at 37° C. for 12 hours in a 5% carbon dioxide gas incubator to adhere the cells, substance FKI-3864 (2.5 μL as a methanol solution) and [1−^14C] oleic acid (5 μL, 1.85 kBq, 1 nmol) were added, and incubation was continued for additional 6 hours.
The supernatant of the culture was removed, and after 0.1% SDS-Tris/HCl (pH 7.5, 120 μL) was added for lysis of the cells, neutral fat in the cells was extracted by the Bligh & Dyer method. After the extract was concentrated, it was spotted on a TLC (silica gel plate, Merck, 0.5 mm in thickness) and developed with a solvent of hexane/diethyl ether/acetic acid (70:30:1, v/v/v), and the quantity of isolated [^14C] triacylglycerols was determined with BAS 2000 (Fuji Film).
Using the same manner as in Test 1, the inhibitory activities on the synthesis of intracellular triacylglycerols of substances FKI-3864-1 and FKI-3864-2 were measured. […] In addition, the activities of mixtures in which substances FKI-3864-1 and FKI-3864-2 were mixed at different ratios are shown in Table 2.

[2] = Solubility in solvents; format: physicochemical
Description: (7) Solubility in solvents: Soluble in methanol, chloroform, and ethyl acetate; insoluble in water.

CCCCCC(O)CC(O)CC1Cc2cc3cc(OC)c(-c4c(OC)cc5cc6c(c(O)c5c4O)C(=O)OC(CC(O)CC(O)CCCCC)C6)c(O)c3c(O)c2C(=O)O1 (single isomer, unassigned) [FKI-3864-1]
IC50 [1]: ≥ 12000 nM | Solubility in solvents: methanol, chloroform, and ethyl acetate [2]: Soluble | Solubility in solvents: water [2]: insoluble

CCCCCC(O)CC(O)CC1Cc2cc3cc(OC)c(-c4c(OC)cc5cc6c(c(O)c5c4O)C(=O)OC(CC(O)CC(O)CCCCC)C6)c(O)c3c(O)c2C(=O)O1 (single isomer, unassigned) [FKI-3864-2]
IC50 [1]: 540 nM | Solubility in solvents: methanol, chloroform, and ethyl acetate [2]: Soluble | Solubility in solvents: water [2]: insoluble

CCCCCC(O)CC(O)CC1Cc2cc3cc(OC)c(-c4c(OC)cc5cc6c(c(O)c5c4O)C(=O)OC(CC(O)CC(O)CCCCC)C6)c(O)c3c(O)c2C(=O)O1 (stereo not drawn) [FKI-3864]
IC50 ([1]; Cricetulus griseus, CHO-K1, 6 h): 93 nM | Solubility in solvents: methanol, chloroform, and ethyl acetate [2]: Soluble | Solubility in solvents: water [2]: insoluble

From US8378125B2, “Substance FKI-3864 and method for preparation thereof” (School Juridical Person Kitasato Institute, priority 2008, dated 2013)
